Results: PubChem BioAssay (NCI)
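1) Cells in 96-well plates. 2) Compound, 48 h, 5 concentrations. 3) Linear interpolation between surrounding doses. 4) Unreached endpoint = highest concentration. TGI: concentration producing complete growth inhibition.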

How the values were obtained:
Experiment in all cases: inhibition of tumour cell growth, NCI panel, 48 h
786-0 renal = test system: 786-0 renal
EKVX NSCLC = test system: EKVX NSCLC
HCC-2998 colon = test system: HCC-2998 colon
HOP-92 NSCLC = test system: HOP-92 NSCLC
KM12 colon = test system: KM12 colon
MALME-3M melanoma = test system: MALME-3M melanoma
OVCAR-4 ovarian = test system: OVCAR-4 ovarian
SK-MEL-2 melanoma = test system: SK-MEL-2 melanoma
SK-OV-3 ovarian = test system: SK-OV-3 ovarian
T-47D breast = test system: T-47D breast
UACC-62 melanoma = test system: UACC-62 melanoma

Structure (SMILES)	TGI (786-0 renal)	TGI (EKVX NSCLC)	TGI (HCC-2998 colon)	TGI (HOP-92 NSCLC)	TGI (KM12 colon)	TGI (MALME-3M melanoma)	TGI (OVCAR-4 ovarian)	TGI (SK-MEL-2 melanoma)	TGI (SK-OV-3 ovarian)	TGI (T-47D breast)	TGI (UACC-62 melanoma)
O=C1NC(NNc2ccccc2)=N/C1=C\c1ccccc1O	> 100 µM	> 100 µM	> 100 µM	> 100 µM	> 100 µM	> 100 µM	> 100 µM	> 100 µM	> 100 µM	> 100 µM	> 100 µM
CC1(C)CC(=O)c2[nH]c3ccccc3c2CC(=O)NCCc2cn1cn2	> 100 µM	> 100 µM	> 100 µM	> 100 µM	> 100 µM	> 100 µM	> 100 µM	> 100 µM	> 100 µM	> 100 µM	> 100 µM
OC1(C(F)(F)F)OCCN=C1C(F)(F)F (stereo not drawn)	> 100 µM	> 100 µM	> 100 µM	> 100 µM	> 100 µM	76.4 µM	> 100 µM	> 100 µM	> 100 µM	> 100 µM	> 100 µM
CCCn1c2ccccc2c2ccc3c(c21)C(=O)C=CC3=O	3.27 µM	> 7.95 µM	> 10 µM	3.8 µM	> 10 µM	4.02 µM	4.07 µM	> 10 µM	> 10 µM	5.44 µM	> 10 µM
N=C1/C(=C/c2ccc(F)cc2)C(=O)N=C2SC=NN12	> 100 µM	> 100 µM	> 100 µM	> 100 µM	> 100 µM	> 100 µM	> 100 µM	> 100 µM	> 100 µM	> 100 µM	> 100 µM
Cc1cc(C)nc(NC(=O)c2ccc(Br)s2)c1	> 100 µM	> 100 µM	> 100 µM	> 100 µM	> 100 µM	> 100 µM	> 100 µM	> 100 µM	> 100 µM	> 100 µM	> 100 µM
Nc1ccc(Oc2ccc(C34CC5CC6C3CC3CC4C(C5)C6(c4ccc(Oc5ccc(N)cc5)cc4)C3)cc2)cc1	45.2 µM	> 77.8 µM	38.9 µM	11.7 µM	> 100 µM	2.81 µM	> 100 µM	23.6 µM	53.9 µM	> 81.5 µM	> 87.9 µM
C=C(CCC/C(C)=C/C=C/[C@]1(C)CCCc2ccoc21)CC(=O)O	> 100 µM	> 100 µM	> 100 µM	> 100 µM	> 100 µM	> 100 µM	> 100 µM	> 100 µM	> 100 µM	> 100 µM	> 100 µM
